# Test results taken from US12209112B2, “Methods of preventing or treating diseases, conditions, or disorders associated with chemotherapy” (The Chinese University of Hong Kong, priority 2022, dated 2025).
# Like-named read-outs stand apart in the source and are kept apart here.
# Key:
# hESC-CMs [1] = assay: Nuclear condensation by Hoechst 33342 stain (cardiomyocyte apoptosis); type: cell-based, human
# Experimental: (§1) To evaluate mitochondrial morphology as a surrogate of cell and mitochondrial viability, hESC-CMs were incubated in B27+/RPMI−1640 media containing 50 nmol/L MitoTracker Deep Red (MTDR) (Thermo Fisher Scientific, USA), and 1 μg/ml Hoechst 33342 (Thermo Fisher Scientific, USA) for 20 minutes. Microscopic images were acquired using DMi8s Research Inverted Thunder Imager Live Cell System (Leica, Germany). For MTDR and Hoechst 33342 imaging, excitation wavelengths of […] and 480 nm, respectively, were used. Mitochondrial morphology was classified into three categories: i) elongated, ii) punctate, and iii) perinuclear. Nuclear morphology was classified as either condensed or normal.
# hESC-CMs [2] = assay: Real-time PCR of genes important for mitochondrial function; type: cell-based, human
# Experimental: RNA was extracted using TRIzol™ Reagent (Thermo Fisher Scientific, USA) as per manufacturer's protocol. RNase-free reagents and consumables were used. RNA concentration and A260/280 ratio were determined using Synergy HTX Multi-Mode microplate reader (Agilent Technologies, USA).
# cDNA was synthesized using the PrimeScript™ RT Master Mix (Takara, Japan) for real-time quantitative polymerase chain reaction (qPCR). Briefly, reverse transcription used 2 μl of 5× PrimeScript™ RT Master Mix, 0.5 μg of total RNA, and RNase-free dH2O added to total mixture volume of 10 μl. The reaction was carried out at 37° C. for 15 minutes and 85° C. for 5 seconds.
# qPCR was performed using SYBR Green Master Mix (Promega, USA) as per manufacturer's protocol. A total reaction volume of 10 μl included 5 μl GoTaq® qPCR Master Mix 2×, 0.3 μl 10 nmol/L primers mix, and 30 ng cDNA template. The qPCR condition was: 1 cycle of 95° C. for 2 minutes, 40 cycles of 95° C. for 3 seconds, and 60° C. for 30 seconds. Expression level of genes was quantified using the 2^−ΔΔCT method on a ABI QuantStudio 12-Flex QPCR System W/96 Fast & 384 (Thermo Fisher Scientific, USA). Primer sequences used were summarized as follows for the respective gene sequences (Table 2).
# hESC-CMs [3] = assay: Mitochondrial morphology analysis (MitoTracker Deep Red); type: cell-based, human
# Experimental: as §1
# C57BL/6J male mice = type: in vivo, mouse
# Experimental: Recombinant human GDF15/MIC-1 protein (CHO-derived) was purchased from PeproTech Inc. (Cranbury, USA) and described in Example 1. […] For in vitro studies, solid lyophilized powder of these two drugs were solubilized at the recommended concentrations in sterile water, and separate aliquots were made and frozen until thawing prior to addition to cell cultures. For in vivo studies, all agents were dissolved in […] normal saline according to the required concentrations (doxorubicin, 5 mg/kg; GDF15, 0.5 mg/kg; dexrazoxane, […]), and the final volume of each intraperitoneal injection was 100 μl. The recommended dose ratio of dexrazoxane to doxorubicin was 10 to 1. In the following examples, 5 mg/kg of doxorubicin was used which correspond to 50 mg/kg of dexrazoxane. The FDA recommends that dexrazoxane be injected within 0.5 hour prior to doxorubicin infusion in individuals. This was followed in the same manner when applying to the test animals.
# To induce cardiotoxicity in the mouse, four weekly intraperitoneal injections of doxorubicin at 5 mg/kg were administered. After one dose of doxorubicin at 5-6 mg/kg in a mouse, the level of exposure has been estimated to be similar to that of a human individual being given a standard dose of doxorubicin at approximately 60 mg/m^2. […]
# The image processing and analysis software, ImageJ version 1.53K, was used for evaluation of histopathology from mouse experiments. For Masson's trichrome staining, the acquired images were converted from color to grayscale using ImageJ, the blue-stained collagen were segmented (separated) using thresholding, and the threshold areas in a representative microscopic field were quantified. […] Cells containing brown staining (TUNEL-positive cells) were counted in a representative microscopic field for each mouse in each group.
# hESC-CMs [4] = assay: α-actinin immunostaining for sarcomeric integrity; type: cell-based, human
# Experimental: hESC-CMs were permeabilized using 0.1% Triton X-100 (Thermo Fisher Scientific, USA). After permeabilizing for 15 minutes, cells were washed three times in PBS, and further permeabilization was blocked by incubating cells in PBS with 10% FBS (Hyclone, USA) for 1 hour at room temperature. Cells were incubated with the primary anti-actinin antibody (1:400) (Abcam, UK) and diluted in PBS with 10% FBS overnight. Cells were then washed three times with PBS and incubated with a goat anti-mouse IgG1 secondary antibody (1:1000 diluted in PBS with 10% FBS) (Thermo Fisher Scientific, USA) for 1 hour at room temperature. Finally, cells were washed twice with PBS and mounted using ibidi mounting medium with DAPI (Ibidi, Germany). Microscopic images were acquired using the DMi8s Research Inverted Thunder Imager Live Cell System (Leica, Germany) at 20×, 40×, and 100× magnification.
# [5] = hESC-CMs, pretreatment in the presence of Dox
# [6] = 300 ng/ml GDF15 pretreatment, hESC-CMs exposed to doxorubicin
"expression of genes important for mitochondrial function (hESC-CMs [2]; hESC-CMs, doxorubicin alone)",Molecule,"hESC-CMs displaying nuclear condensation (hESC-CMs [1]; doxorubicin-treated, no pretreatment)","punctation or perinuclear changes of mitochondria (hESC-CMs [3]; doxorubicin-treated cells, no pretreatment, untreated control 5.4±4.2%)","elongated mitochondria (proportion of hESC-CMs) (hESC-CMs [3]; doxorubicin-treated cells, no pretreatment, untreated control 94.6±5.8%)","cardiac fibrosis (Masson's trichrome) (C57BL/6J male mice; mouse, in vivo)",sarcomere structure (α-actinin immunostaining) (hESC-CMs [4]; hESC-CMs exposed to Dox alone),extent of nuclear condensation compared with dexrazoxane (hESC-CMs [1]; [5]),"hESC-CMs displaying nuclear condensation (hESC-CMs [1]; pretreated with 300 ng/ml GDF15, then doxorubicin)",expression of genes important for mitochondrial function (hESC-CMs [2]; hESC-CMs pretreated with GDF15 prior to doxorubicin exposure),elongated mitochondria (hESC-CMs [3]; [6]),perinuclear mitochondria (hESC-CMs [3]; [6]),mitochondrial integrity compared with dexrazoxane (hESC-CMs [3]; [5]),"cardiac fibrosis (Masson's trichrome) (C57BL/6J male mice; mice, pretreatment before doxorubicin, versus doxorubicin only)","sarcomere structure (α-actinin immunostaining) (hESC-CMs [4]; hESC-CMs, agent only, no doxorubicin)","sarcomeric damage (α-actinin immunostaining) (hESC-CMs [4]; hESC-CMs, pretreatment preceding doxorubicin)"
suppressed,"COc1cccc2c1C(=O)c1c(O)c3c(c(O)c1C2=O)C[C@@](O)(C(=O)CO)C[C@@H]3OC1C[C@H](N)[C@H](O)[C@H](C)O1.Cl (stereo partly drawn) [Dox, (8S,10S)-10-[(3-Amino-2,3,6-trideoxy-L-lyxohexopyranosyl)oxy]-7,8,9,10-tetrahydro-6,8,11-trihydroxy-8-(hydroxyacetyl)-1-methoxynaphthacene-5,12-dione hydrochloride, reference compound]",> 40%,47.3±12.6%,24.5±17.1%,diffuse myocardial interstitial fibrosis as well as perivascular fibrosis,considerable disruption of sarcomere structure and nuclear condensation,–,–,–,–,–,–,–,–,–
–,"GDF15: commercially available recombinant human GDF-15 protein (PeproTech 120-28C), CHO cell-derived, SEQ ID NO: 1",–,–,–,–,–,performed similarly to dexrazoxane,12.8±1.7%,improved,62.5±11.0%,13.2±14.7%,performed similarly to dexrazoxane,visually and quantitatively reduced,"well-organized, striated sarcomeres",sarcomeric damage was evidently attenuated
